# Patent US20060041016A1, “Composition and method for the treatment of psoriasis” (priority 2004, published 2006)
# Assays:
# eye = details: tested in the form of an isopropyl ester prodrug; cited from earlier work
# [1] = system: Normal human epithelial keratinocytes; assay: Antiproliferative effect on cultured keratinocytes, crystal violet method, absorbance at 595 nm; assay type: cell-based; details: for antiproliferative potency relative to PGA2 and the other analogues: normal human epithelial keratinocytes, 7 days incubation, FIG. 1-4
# Description: Normal human epithelial keratinocytes, and keratinocyte growth medium (KGM^R-2 Bulletkit; CC-3107 from Clonetics, USA) were purchased from Göteborgs Termometerfabrik AB (Västra Frölunda, Sweden). The cells were cultured at 37° C. in 5% CO2 humidified air according to standard procedure. The cells used for the experiments were at the third passage. 48-well plates were used for the cultures. In each well about 3000 cells were seeded. For each concentration of prostaglandin analogues two wells were used. After completion of the incubation, the wells were washed twice with phosphate buffered saline (PBS). Thereafter the cells were fixed with 1% glutaraldehyde in PBS at +4° C. for 15 min. The wells were then again washed twice with PBS, and thereafter treated with 0.1% crystal violet solution (500 μl/well). The wells were then rinsed with distilled water for 15 sec, three times, and were left to dry completely. The absorbed colour was solubilized in 500 μl 2.5% sodiumdodecyl-sulphate (SDS) in distilled water for 3 hours. The absorbance of the fluid in the wells was determined using a microtiter well spectrophotometer (Multiscan RC V1.3-0) at 595 nm. The experiments were performed in duplicate (two wells). The incubation time was 7 days, and the incubation medium was changed after 3-4 days. The prostaglandin analogues were dissolved directly in the incubation medium. After appropriate incubation the density of cells in the wells was determined using the crystal violet method described above.
# [2] = system: BAX gene expression (BAX-protein) in human keratinocytes; assay: Expression of the pro-apoptotic BAX gene by immunocytochemistry; assay type: cell-based
# Description: The cells, cultivated essentially as described above, were trypsinized, the solution centrifuged, and the pellet resuspended and transferred to a microscopic slide with cover slip. Immunocytochemistry was performed according to standard technique. BAX (N-20)-affinity purified rabbit polyclonal antibodies were purchased from Santa Cruz Biotechnology Inc. (Santa Cruz, Calif.), and used at a dilution of 1:200. Secondary goat-antirabbit antibodies conjugated to horseradish peroxidase (Dako Envision+TM) obtained from Dako (Carpinteria, Calif., USA) were used for detecting the primary antibodies. After appropriate rinsing the preparations were incubated with […] as chromogenic substrate for the horseradish peroxidase for 10 min at room temperature. […] The preparations were finally examined in a Nikon FTX fluorescence microscope equipped with camera, and colour photographs were taken of representative cells.
# In another set of experiments, intravital staining for detection of apoptosis/necrosis in keratinocytes cultivated as above in the absence and presence of BR280 (17-phenyl-18,19,20-trinor-PGA2) was performed with propidium-iodide/Hoechst 33342 (bisbenzimide) purchased from Sigma Chemical Company (St. Louis, Mo.). […] The cells were examined in a Nikon FTX fluorescence microscope equipped with a UV-2A filter and camera. […]
# human keratinocytes = assay: Intravital staining with propidium-iodide/Hoechst 33342 for apoptosis/necrosis; assay type: cell-based; details: keratinocytes exposed for 7 days
# Description: In another set of experiments, intravital staining for detection of apoptosis/necrosis in keratinocytes cultivated as above in the absence and presence of BR280 (17-phenyl-18,19,20-trinor-PGA2) was performed with propidium-iodide/Hoechst 33342 (bisbenzimide) purchased from Sigma Chemical Company (St. Louis, Mo.). A mixture of propidium-iodide (10 μg/ml) and Hoechst 33342 (5 μg/ml) was added to the culture medium. The cells were incubated in the medium for 10 min at 37° C. The medium was harvested for free floating cells while the attached cells were washed once with Ca^++/Mg^++ free Hanks solution (Sigma Chemical Company), or PBS. Thereafter 1.5 ml of a 0.5% trypsin/EDTA solution (Ca^++/Mg^++ free Hanks solution, or PBS) was added and incubation was carried out for 5 min at 37° C. The solution was then centrifuged for 1 min (500 g). The pellet was resuspended in 0.5 ml PBS, and the solution was centrifuged as above. The pellet was then suspended in 20 μl PBS, and the solution containing the cells was placed on a microscopic slide with cover slip. The cells were examined in a Nikon FTX fluorescence microscope equipped with a UV-2A filter and camera. Colour photographs were taken of representative cells. The prostaglandin analogue (BR280) was diluted directly in the culture medium. […]
# human eye = assay: Hyperemia/irritation test using the human eye as a model; assay type: in vivo; details: for hyperemia and ocular irritation or pain after application (in words): human eye, topical, 3 individuals, about 10^−4 M and about 3×10^−4 M; for Difference in irritation PGA2 - JB991 acid / Difference in hyperemia PGA2 - JB991 acid: topical on eye, n = 3; for Difference in irritation PGA2 - JB991 acid: categorical scale, Mean ± SEM; for Difference in hyperemia PGA2 - JB991 acid: scale 0-3, Mean ± SEM
# Description: PGA2 and 17-phenyl-18,19,20-trinor-PGA2, synthesized as described above, were formulated in vehicles suitable for hyperemia/irritation tests using the human eye as a model. The superficial redness of the eyes was documented by colour photographs before, and 15, 30, 60 and 120 min after application of the test substances. One eye was treated with the prostaglandin analogue and the other eye with the vehicle only. Ocular irritation or pain was recorded at the same time points. The two test substances at a concentration of 26 μg/ml (about 10^−4 M) were tested in the same eye of three healthy individuals a few days apart.
# About a week later, a higher concentration of each compound, 84 μg/ml of PGA2 and 96 μg/ml of 17-phenyl-18,19,20-trinor-PGA2 (both concentrations corresponding to about 3×10^−4 M) was again tested a few days apart in the same eyes of the same individuals. The concentrations used are relevant since for the treatment of psoriasis the drugs have to be used at approximately this concentration range. The hyperemia was evaluated on a scale from 0 (no hyperemia) to 3 (maximum hyperemia) using half steps. A similar categorical scale was used for the ocular irritation or pain. […]
# [3] = Dose 2 (84 μg/ml; JB991 acid 96 μg/ml), 0 min
# [4] = Dose 2 (84 μg/ml; JB991 acid 96 μg/ml), 15 min
# [5] = Dose 2 (84 μg/ml; JB991 acid 96 μg/ml), 30 min
# [6] = Dose 2 (84 μg/ml; JB991 acid 96 μg/ml), 60 min
# [7] = Dose 2 (84 μg/ml; JB991 acid 96 μg/ml), 120 min
structure (smiles),measurement,setting,value
O=C(O)CCC/C=C\CC1C(=O)C=CC1CCC(O)CCc1ccccc1 (stereo not drawn),hyperemia in the eye,eye,caused some hyperemia in the eye
"O=C(O)CCC/C=C\CC1C(=O)C=CC1/C=C/C(O)COc1cccc(C(F)(F)F)c1 (stereo not drawn) [BR277, 16-phenoxy-(3-trifluormethyl)-17,18,19,20-tetranor-PGA2]",antiproliferative potency relative to PGA2 and the other analogues,[1],next most potent of the PGA2 analogues
"O=C(O)CCC/C=C\CC1C(=O)C=CC1CCC(O)CCc1ccccc1 (stereo not drawn) [BR278, 13,14-dihydro-17-phenyl-18,19,20-trinor-PGA2]",antiproliferative potency relative to PGA2 and the other analogues,[1],lowest potency
"O=C(O)CCC/C=C\CC1C(=O)C=CC1/C=C/C(O)CCc1ccccc1 (stereo not drawn) [BR280, 17-phenyl-18,19,20-trinor-PGA2]",antiproliferative potency relative to PGA2 and the other analogues,[1],even more potent than PGA2
same,BAX gene expression (BAX-protein) immunostaining,"[2]; human keratinocytes exposed at different concentrations, 2 days incubation",could be demonstrated
same,BAX gene expression effect at low concentrations,[2]; lower concentrations than 10^−5 M,weak or absent
same,signs of apoptosis by intravital staining,human keratinocytes,Markedly condensed and fragmented nuclei and apoptotic bodies could be demonstrated
same,hyperemia and ocular irritation or pain after application (in words),human eye,no hyperemic effect or irritative effect whatsoever
"CCCCC[C@H](O)/C=C/[C@H]1C=CC(=O)[C@@H]1C/C=C\CCCC(=O)O [PGA2, prostaglandin A2]",complete cell death,[1]; highest concentration tested,Neither PGA2 nor any of the analogues tested were able to cause complete cell death
same,Difference in irritation PGA2 - JB991 acid,"human eye; Dose 1 (26 μg/ml), 0 min",0.00 ± 0.00
same,Difference in hyperemia PGA2 - JB991 acid,"human eye; Dose 1 (26 μg/ml), 0 min",0.00 ± 0.00
same,Difference in irritation PGA2 - JB991 acid,"human eye; Dose 1 (26 μg/ml), 15 min",1.00 ± 0.29
same,Difference in hyperemia PGA2 - JB991 acid,"human eye; Dose 1 (26 μg/ml), 15 min",1.33 ± 0.60
same,Difference in irritation PGA2 - JB991 acid,"human eye; Dose 1 (26 μg/ml), 30 min",1.17 ± 0.33
same,Difference in hyperemia PGA2 - JB991 acid,"human eye; Dose 1 (26 μg/ml), 30 min",1.17 ± 0.44
same,Difference in irritation PGA2 - JB991 acid,"human eye; Dose 1 (26 μg/ml), 60 min",0.50 ± 0.29
same,Difference in hyperemia PGA2 - JB991 acid,"human eye; Dose 1 (26 μg/ml), 60 min",0.67 ± 0.44
same,Difference in irritation PGA2 - JB991 acid,"human eye; Dose 1 (26 μg/ml), 120 min",0.17 ± 0.17
same,Difference in hyperemia PGA2 - JB991 acid,"human eye; Dose 1 (26 μg/ml), 120 min",0.17 ± 0.17
same,Difference in irritation PGA2 - JB991 acid,human eye; [3],0.00 ± 0.00
same,Difference in hyperemia PGA2 - JB991 acid,human eye; [3],0.00 ± 0.00
same,Difference in irritation PGA2 - JB991 acid,human eye; [4],1.83 ± 0.44 *)
same,Difference in hyperemia PGA2 - JB991 acid,human eye; [4],2.17 ± 0.44 **)
same,Difference in irritation PGA2 - JB991 acid,human eye; [5],1.33 ± 0.60
same,Difference in hyperemia PGA2 - JB991 acid,human eye; [5],2.17 ± 0.44 **)
same,Difference in irritation PGA2 - JB991 acid,human eye; [6],0.83 ± 0.44
same,Difference in hyperemia PGA2 - JB991 acid,human eye; [6],1.33 ± 0.60
same,Difference in irritation PGA2 - JB991 acid,human eye; [7],0.33 ± 0.17
same,Difference in hyperemia PGA2 - JB991 acid,human eye; [7],0.50 ± 0.29
same,hyperemia and ocular irritation or pain after application (in words),human eye,causes both these disadvantageous side-effects
